Data on 1 molecule can be found in paper PMC3274619 (Bioorganic & medicinal chemistry letters, 2012).

This data set can be described thus: Solubility observed during synthesis and purification. Format: physicochemical. As to conditions: cause of yield and purification difficulties.

SMILES strings stand for the structures.

On to `Cc1nc(N)sc1-c1csc(Nc2cc(N(C)C)ccc2Cl)n1` [compound 15, N^2-(2-chloro-5-(dimethylamino)phenyl)-4′-methyl-[4,5′-bithiazole]-2,2′-diamine], for which the solubility result is listed as “poor solubility”.
